The structures appear in SMILES notation.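 In this assay, cells in 96-well plates receive the compound at five concentrations for 48 hours. Endpoints are linearly interpolated between the surrounding concentrations. At the GI50, growth is halved. TGI denotes the concentration required for complete inhibition of growth.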 A value given as a limit tells only on which side of the number the result lay.

Among the test systems are A498 renal; MCF7 breast; SK-MEL-5 melanoma; SNB-19 CNS; MDA-MB-435; HOP-62 NSCLC; SK-MEL-28 melanoma; CAKI-1 renal; HT29 colon; NCI/ADR-RES ovarian.
Holding throughout (assay): growth of human tumour cells (NCI), 48 h

As to `COc1ccc(/C=C(/c2ccccc2)[N+](=O)[O-])cc1`, the GI50 is 1.01 µM with A498 renal; 0.567 µM with MCF7 breast; 1.82 µM with SK-MEL-5 melanoma; 1.65 µM with SNB-19 CNS; 1.3 µM with MDA-MB-435; 1.82 µM in the assay on HOP-62 NSCLC. Moreover, the GI50 was 1.57 µM with SK-MEL-28 melanoma, 1.55 µM in the assay with CAKI-1 renal, 2.04 µM with HT29 colon and 1.75 µM in the assay with NCI/ADR-RES ovarian. Further, the TGI came out at 2.24 µM in the assay with A498 renal; 2.68 µM in the assay with MCF7 breast; 3.29 µM with SK-MEL-5 melanoma; 3.17 µM in the assay on SNB-19 CNS; 2.69 µM in the assay on MDA-MB-435; 3.79 µM in the assay with HOP-62 NSCLC. Further, the TGI with SK-MEL-28 melanoma turned out to be 3.19 µM; with CAKI-1 renal, 3.28 µM; in the assay with HT29 colon it was 11.3 µM; in the assay with NCI/ADR-RES ovarian, 4.66 µM.
Turning to `O/C(=C\c1nc2ccccc2nc1NC12CC3CC(CC(C3)C1)C2)c1ccc(Br)cc1`, the TGI in the assay on A498 renal, with MCF7 breast, with SK-MEL-5 melanoma, in the assay with SNB-19 CNS, in the assay on MDA-MB-435 and in the assay with HOP-62 NSCLC was above 10 µM each time. Besides, the TGI in the assay on SK-MEL-28 melanoma, in the assay on CAKI-1 renal, in the assay on HT29 colon and in the assay on NCI/ADR-RES ovarian was above 10 µM in each case.
Take `Nc1ccc2[nH]cc(CCC(=O)O)c2c1`: the TGI with A498 renal, in the assay on MCF7 breast, with SK-MEL-5 melanoma, in the assay on SNB-19 CNS, in the assay with MDA-MB-435 and with HOP-62 NSCLC was above 100 µM throughout. For the same compound, the TGI in the assay with SK-MEL-28 melanoma, with CAKI-1 renal, in the assay with HT29 colon and in the assay with NCI/ADR-RES ovarian was above 100 µM in each case.
Regarding `C[C@H]1CCC/C=C/[C@@H]2C[C@H](O)C[C@H]2[C@H](O)[C@@H](SCC(O)CO)CC(=O)O1` (stereo not given in full), the GI50 was 24.4 µM in the assay with A498 renal; 20.5 µM with MCF7 breast; 6.3 µM with SK-MEL-5 melanoma; 27.1 µM in the assay with SNB-19 CNS; 35.5 µM with MDA-MB-435; 33.2 µM in the assay with HOP-62 NSCLC. For the same compound, the GI50 with SK-MEL-28 melanoma was 13.3 µM; with CAKI-1 renal, 31.7 µM; in the assay with HT29 colon it was 10.2 µM; in the assay with NCI/ADR-RES ovarian it was above 100 µM. Also, the TGI with A498 renal is 50.2 µM; with MCF7 breast, 47.8 µM; in the assay on SK-MEL-5 melanoma, 19.5 µM; with SNB-19 CNS it was 70.9 µM; in the assay with MDA-MB-435 it was above 100 µM; in the assay with HOP-62 NSCLC, above 100 µM. The TGI in the assay on SK-MEL-28 melanoma is above 100 µM; with CAKI-1 renal, 67.6 µM; in the assay on HT29 colon, 40.8 µM; in the assay with NCI/ADR-RES ovarian, above 100 µM.
Take `Cn1c(=O)c2c(ncn2CC(=O)Nc2ccc(-c3ccccc3)nn2)n(C)c1=O`: the GI50 with A498 renal was 54.1 µM; with MCF7 breast, above 100 µM; in the assay with SK-MEL-5 melanoma, 62.6 µM; in the assay with SNB-19 CNS, above 100 µM; with MDA-MB-435 it was above 100 µM; in the assay on HOP-62 NSCLC it was above 100 µM. The GI50 in the assay with SK-MEL-28 melanoma, with CAKI-1 renal, in the assay on HT29 colon and in the assay on NCI/ADR-RES ovarian was above 100 µM throughout. In addition, the TGI in the assay with A498 renal, in the assay with MCF7 breast, in the assay with SK-MEL-5 melanoma, in the assay with SNB-19 CNS, in the assay on MDA-MB-435 and in the assay on HOP-62 NSCLC was above 100 µM each time. For the same compound, the TGI in the assay on SK-MEL-28 melanoma, in the assay on CAKI-1 renal, in the assay on HT29 colon and in the assay on NCI/ADR-RES ovarian was above 100 µM each time.
For the compound `CC(C)C1=C2CCC3(C)C(CCC4C5C6OCC5(CCC6(C)C)CCC43C)C2(C)CC1` (stereo not given), the TGI is 36.7 µM with A498 renal; 47.7 µM with MCF7 breast; 50.2 µM with SK-MEL-5 melanoma; 98.6 µM in the assay with SNB-19 CNS; 36.6 µM with MDA-MB-435; 38.9 µM in the assay on HOP-62 NSCLC. The TGI in the assay on SK-MEL-28 melanoma turned out to be 32.8 µM; in the assay on CAKI-1 renal it was 38.3 µM; in the assay with HT29 colon, 37 µM; in the assay with NCI/ADR-RES ovarian it was 39.6 µM.
Regarding `N#Cc1ccc(OC(=O)Nc2ccc(Cl)c(Cl)c2)cc1`, the GI50 in the assay on A498 renal is 1.44 µM; in the assay on MCF7 breast, 2.6 µM; in the assay on SK-MEL-5 melanoma, 6.03 µM; in the assay on SNB-19 CNS it was 3.1 µM; in the assay with MDA-MB-435 it was 3.17 µM; in the assay on HOP-62 NSCLC, 7.5 µM. For the same compound, the GI50 in the assay on SK-MEL-28 melanoma was 5.53 µM; in the assay on CAKI-1 renal it was 3.4 µM; with HT29 colon, 3.35 µM; in the assay with NCI/ADR-RES ovarian, 3.79 µM. The TGI in the assay on A498 renal was 6.92 µM; in the assay with MCF7 breast, 11.6 µM; with SK-MEL-5 melanoma, 19.4 µM; in the assay with SNB-19 CNS, above 100 µM; with MDA-MB-435, 22.4 µM; in the assay with HOP-62 NSCLC, 60.7 µM. The TGI was above 100 µM with SK-MEL-28 melanoma, 18.2 µM in the assay with CAKI-1 renal, 28.6 µM in the assay with HT29 colon and above 100 µM with NCI/ADR-RES ovarian.
As to `CC(O)CC(O)(C(F)(F)F)C(F)(F)F` (stereo not given), the TGI with A498 renal, with MCF7 breast, in the assay with SK-MEL-5 melanoma, in the assay with SNB-19 CNS, with MDA-MB-435 and in the assay on HOP-62 NSCLC was above 10 µM each time. For the same compound, the TGI in the assay on SK-MEL-28 melanoma, in the assay on CAKI-1 renal, in the assay on HT29 colon and in the assay on NCI/ADR-RES ovarian was above 10 µM each time.
